According to US7258984B2, “Compositions and methods for identifying agents which regulate autolytic processes in bacteria” (priority 2001, dated 2007):

Tests used:
Assay type in all cases: cell-based, Staphylococcus aureus
[1] = system: S. aureus rat-sarA double-mutant; assay: TRITON X-100-induced cell lysis, rat-sarA double mutant; conditions: compared with single mutants
Procedure: (§1) TRITON® X-100 sensitivity was determined for rat, sarA, and rat-sarA double-mutant strains.
(§2) The effect of TRITON® X-100 on growing cells was determined by diluting cultures grown overnight to an OD650 nm of 0.1 in TSB with varying concentrations of TRITON® X-100. Cells were incubated at 37° C. with shaking and the optical density was recorded hourly for seven to eight hours.
(§3) TRITON® X-100-induced autolysis assays were conducted by diluting cultures grown overnight to an OD650 nm of 0.05 in TSB containing 1 M NaCl. Cells were allowed to grow at 37° C. with shaking until an OD650 nm of 0.7 was reached. Cells were harvested, washed twice with ice cold water and then resuspended in the same volume of 0.05 M Tris-HCl, pH 7.2, containing 0.05% TRITON® X-100. Cells were incubated at 30° C. with shaking and lysis was determined by measuring absorbance at OD600 nm at 30 minutes intervals.

[2] = system: S. aureus rat mutant; assay: TRITON X-100 sensitivity, rat mutant
Procedure: as §1, §2, §3

[3] = system: S. aureus sarA mutant; assay: TRITON X-100 sensitivity, sarA mutant
Procedure: as §1, §2, §3

[4] = system: S. aureus rat deletion mutant; assay: Penicillin-induced lysis, rat deletion mutant (ACL2530); conditions: 100 μg penicillin (3× MIC)
Procedure: (§4) Similar to the rat transposon mutant, the rat deletion mutant was unable to grow to an OD650 nm of 1.7 (early-stationary).
(§5) Penicillin sensitivity assays were conducted by diluting rat mutant cultures grown overnight to an OD650 nm of 0.05 in TSB containing the appropriate antibiotics to maintain selection. Cultures were grown at 37° C. with shaking to reach exponential phase (OD650 nm=0.5). Penicillin G was added to a concentration of 0.1 μg/ml. Optical densities at 650 nm were measured every hour for eight to nine hours.

[5] = system: S. aureus complemented strain (ACL2531); assay: Penicillin-induced lysis, complemented strain (ACL2531); conditions: 100 μg penicillin (3× MIC)
Procedure: as §4
as §5, with “Penicillin G was added to a concentration of 0.1 μg/ml.” left out

[6] = system: wild-type S. aureus; assay: Penicillin sensitivity assay (growth curve, OD650 nm), wild-type strain; conditions: 200 ng/ml (subinhibitory) added at OD650 nm of 0.5, mid-log phase
Procedure: (§6) Rat plays a role in regulating autolytic activity of S. aureus. […] Furthermore, inactivation of the rat locus renders the S. aureus bacteria sensitive to lysis upon growth beyond the mid-log phase. To evaluate whether the cell lysis of the rat mutant was additive to the effect of a subinhibitory concentration of penicillin, 200 ng/ml of penicillin was added to a growing culture of the rat mutant at an OD650 nm of 0.5, corresponding to the mid-log phase. […] This finding is consistent with the additive effect of penicillin upon the lytic propensity of the rat mutant late in the growth cycle. […] In comparison to the parental strain, the rat mutant with subinhibitory concentrations of penicillin has a 3-4 log kill than the parental strain with antibiotics.
as §5

[7] = system: S. aureus rat mutant; assay: Plating of antibiotic-treated cultures on agar plates without antibiotic selection (kill); conditions: subinhibitory concentrations of penicillin; plated on agar without antibiotic selection
Procedure: as §6

[8] = system: S. aureus rat mutant; assay: Penicillin sensitivity assay (growth curve, OD650 nm), rat mutant; conditions: 200 ng/ml (subinhibitory) added at OD650 nm of 0.5, mid-log phase
Procedure: as §6, §5

Row | Substance | TRITON X-100-induced cell lysis [1] | TRITON X-100 concentration at which sensitivity was displayed [2] [%] | TRITON X-100 concentration at which sensitivity was displayed [3] [%] | lysis in the presence of penicillin [4] | lysis in the presence of penicillin [5] | optical density as the growth cycle progressed after addition of penicillin [6] | kill of rat mutant compared with the parental strain with antibiotics [7] | optical density as the growth cycle progressed after addition of penicillin [8]
1 | TRITON® X-100 | more severe defect | ≥ 0.01 | ≥ 0.01 | – | – | – | – | –
2 | penicillin | – | – | – | readily lysed | behaved like wild-type | no increase in optical density | 3-4 log | further reduction in optical density
